Where two headings read alike, the source gives them in different places.

Experimental findings from patent US20130324725A1, “AMINOPYRIMIDINES USEFUL AS KINASE INHIBITORS” (VERTEX PHARMACEUTICALS INCORPORATED, priority 2007, published 2013) are described below.

The test system of one experiment is Colo205 cells. Description: Analysis of cell proliferation and viability. It is filed as cell-based. The conditions noted are these: Homo sapiens. How it is done:
Compounds were screened for their ability to inhibit cell proliferation and their effects on cell viability using Colo205 cells obtained from ECACC and using the assay shown below.
Colo205 cells were seeded in 96 well plates and serially diluted compound was added to the wells in duplicate. Control groups included untreated cells, the compound diluent (0.1% DMSO alone) and culture medium without cells. The cells were then incubated for 72 or 96 hrs at 37 C in an atmosphere of 5% CO2/95% humidity.
To measure proliferation, 3 h prior to the end of the experiment 0.5 μCi of 3H thymidine was added to each well. Cells were then harvested and the incorporated radioactivity counted on a Wallac microplate beta-counter. Cell viability was assessed using Promega CellTiter 96AQ to measure MTS conversion. Dose response curves were calculated using either Prism 3.0 (GraphPad) or SoftMax Pro 4.3.1 LS (Molecular Devices) software.

The target of experiment [1] is T1, T315I mutant of human Abl (Homo sapiens, UniProt P00519, T315I).
T1 construct: purchased Upstate Cell Signaling Solutions (Dundee, UK), assay run at the vendor
As to the kind of experiment: Mutant Abl kinase (T315I) activity inhibition assay. It is filed as biochemical. The settings on record: at Upstate Cell Signaling Solutions. How it is done: Compounds were screened for their ability to inhibit the T315I mutant form of human Abl at Upstate Cell Signaling Solutions (Dundee, UK). In a final reaction volume of 25 μl, the T315I mutant of human Abl (5-10 mU) was incubated with 8 mM MOPS pH 7.0, 0.2 mM EDTA, 50 μM EAIYAAPFAKKK, 10 mM Mg Acetate, [γ-^33P-ATP](specific activity approx. 500 cpm/pmol, […] final assay concentration) and the test compound of interest at final concentrations over the range […]. The reaction was initiated by the addition of the MgATP mix. After incubation for 40 minutes at room temperature, the reaction was stopped by the addition of 5 μl of a 3% phosphoric acid solution. 10 μl of the reaction was then spotted onto a P30 filtermat and washed three times for 5 minutes in 75 mM phosphoric acid and once in methanol prior to drying and scintillation counting. […]

Another experiment addresses Aurora-1 (Aurora B) (Homo sapiens, UniProt Q96GD4). Description: Aurora-1 (Aurora B) inhibition assay (radiometric). It is filed as biochemical. The conditions noted are these: 800 μM ATP, 25° C.; read-out: Ki, Aurora-1 (Aurora B) radiometric assay (sentence prints Aurora A). The method, then: An assay buffer solution was prepared which consisted of 25 mM HEPES (pH 7.5), 10 mM MgCl2, 0.1% BSA and 10% glycerol. A 22 nM Aurora-B solution, also containing 1.7 mM DTT and 1.5 mM Kemptide (LRRASLG), was prepared in assay buffer. To 22 μL of the Aurora-B solution, in a 96-well plate, was added 2 μl of a compound stock solution in DMSO and the mixture allowed to equilibrate for 10 minutes at 25° C. The enzyme reaction was initiated by the addition of 16 μl stock [γ-^33P]-ATP solution ([…]) prepared in assay buffer, to a final assay concentration of 800 μM. The reaction was stopped after 3 hours by the addition of 16 μL 500 mM phosphoric acid and the levels of ^33P incorporation into the peptide substrate were determined by the following method.
A phosphocellulose 96-well plate (Millipore, Cat no. MAPHNOB50) was pre-treated with 100 μL of a 100 mM phosphoric acid prior to the addition of the enzyme reaction mixture (40 μL). […] Levels of non-enzyme catalyzed background radioactivity were determined by adding 16 μL of the 500 mM phosphoric acid to control wells, containing all assay components (which acts to denature the enzyme), prior to the addition of the [γ-^33P]-ATP solution. Levels of enzyme catalyzed ^33P incorporation were calculated by subtracting mean background counts from those measured at each inhibitor concentration. […]

The target in the next experiment is T2, Aurora-2 (Aurora A) (Homo sapiens, UniProt O14965).
T2 sequence (O14965 1-403): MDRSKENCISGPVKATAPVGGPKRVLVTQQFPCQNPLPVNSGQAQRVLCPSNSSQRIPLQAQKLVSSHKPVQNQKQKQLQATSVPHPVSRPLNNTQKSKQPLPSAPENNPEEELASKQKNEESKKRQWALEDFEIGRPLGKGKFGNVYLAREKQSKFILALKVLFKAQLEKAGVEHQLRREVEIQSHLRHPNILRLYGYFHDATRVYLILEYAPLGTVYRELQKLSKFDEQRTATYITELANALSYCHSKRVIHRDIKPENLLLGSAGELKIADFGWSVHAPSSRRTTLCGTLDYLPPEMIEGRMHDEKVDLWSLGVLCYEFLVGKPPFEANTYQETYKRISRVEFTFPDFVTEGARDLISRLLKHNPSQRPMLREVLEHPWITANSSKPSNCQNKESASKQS
As to the kind of experiment: Aurora-2 (Aurora A) inhibition assay, coupled enzyme. It is filed as biochemical. The settings on record: 400 μM ATP, 30° C. How it is done:
Compounds were screened for their ability to inhibit Aurora-2 using a standard coupled enzyme assay (Fox et al., Protein Sci., (1998) 7, 2249). Assays were carried out in a mixture of 100 mM Hepes (pH7.5), 10 mM MgCl2, 1 mM DTT, 25 mM NaCl, 2.5 mM phosphoenolpyruvate, 300 μM NADH, 30 μg/ml pyruvate kinase and 10 μg/ml lactate dehydrogenase. Final substrate concentrations in the assay were 400 μM ATP (Sigma Chemicals) and 570 μM peptide (Kemptide, American Peptide, Sunnyvale, Calif.). Assays were carried out at 30° C. and in the presence of 40 nM Aurora-2.
An assay stock buffer solution was prepared containing all of the reagents listed above, with the exception of Aurora-2 and the test compound of interest. 55 μl of the stock solution was placed in a 96 well plate followed by addition of 2 μl of DMSO stock containing serial dilutions of the test compound (typically starting from a final concentration of 7.5 μM). The plate was preincubated for 10 minutes at 30° C. and the reaction initiated by addition of 10 μl of Aurora-2. Initial reaction rates were determined with a Molecular Devices SpectraMax Plus plate reader over a 10 minute time course. IC50 and Ki data were calculated from non-linear regression analysis using the Prism software package (GraphPad Prism version 3.0cx for Macintosh, GraphPad Software, San Diego Calif., USA).

The mark [2] stands for this setting: COLO 205, 72 hours, read-out: IC50 values after 72 hours.
The mark [3] stands for this setting: COLO 205, 96 hours, read-out: IC50 values after 96 hours.

Aurora-1 (Aurora B), sequence (Q96GD4 whole entry): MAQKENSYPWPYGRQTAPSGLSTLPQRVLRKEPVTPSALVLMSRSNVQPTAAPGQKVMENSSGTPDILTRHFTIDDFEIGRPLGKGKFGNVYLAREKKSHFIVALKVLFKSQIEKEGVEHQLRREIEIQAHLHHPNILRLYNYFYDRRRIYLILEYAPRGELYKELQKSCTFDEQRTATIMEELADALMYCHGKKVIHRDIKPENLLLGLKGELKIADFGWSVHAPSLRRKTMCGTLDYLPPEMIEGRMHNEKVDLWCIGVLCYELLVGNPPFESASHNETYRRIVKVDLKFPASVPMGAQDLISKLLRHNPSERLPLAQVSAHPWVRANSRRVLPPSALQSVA

One may read the IC50 as the point on the concentration scale where inhibition reaches its midpoint. For `Cc1cc(Nc2cc(N3CCN(C4CCN(C)CC4)CC3)nc(Sc3ccc4nc(C(F)(F)F)n(C)c4c3)n2)[nH]n1` [Compound I-12], the concentration for half-maximal inhibition (IC50) in the experiment with Colo205 cells (setting [2]) was below 50 nM.
For orientation: Ki means the dissociation constant of the complex between target and ligand, obtained from inhibition or displacement. Consider `Cc1cc(Nc2cc(N3CCN(C4CCN(C)CC4)CC3)nc(Sc3ccc4nc(C(F)(F)F)ccc4c3)n2)[nH]n1` [Compound I-17], for which, in the experiment on Colo205 cells (setting [2]), the IC50 fell in the range of 50 to 100 nM. The molecule also gave a Ki in experiment [1] below 25 nM.
In the case of `Cc1cc(Nc2cc(N3CCN(CC(F)(F)F)CC3)nc(Sc3ccc4c(c3)CN(CC(F)(F)F)C4=O)n2)[nH]n1` [Compound I-24], in the experiment with Colo205 cells (setting [2]), the IC50 lay within 50 to 100 nM.
Same read-out and setting: the value for `Cc1cc(Nc2cc(N3CCN(C(C)(C)CF)CC3)nc(Sc3ccc4nc(CC(F)(F)F)n(C)c4c3)n2)[nH]n1` [Compound I-7] was below 50 nM; that for `Cc1cc(Nc2cc(N3CCN(C4CCCCC4)CC3)nc(Sc3ccc4nc(CC(F)(F)F)n(C)c4c3)n2)[nH]n1` [Compound I-19] was below 50 nM; that for `Cc1cc(Nc2cc(N3CCN(C4CCN(C)CC4)CC3)nc(Sc3cc(F)c4nc(C)ccc4c3)n2)[nH]n1` [Compound I-13, 2-(8-fluoro-2-methylquinolin-6-ylthio)-N-(3-methyl-1H-pyrazol-5-yl)-6-(4-(1-methylpiperidin-4-yl)piperazin-1-yl)pyrimidin-4-amine] was below 50 nM.
In the case of `Cc1cc(Nc2cc(N3CCN(C4CC4)CC3)nc(Sc3ccc4nc(C(F)(F)F)[nH]c4c3)n2)[nH]n1` [Compound I-4], in the experiment with Colo205 cells (setting [2]), the IC50 fell in the range of 50 to 100 nM.
Consider `Cc1cc(Nc2cc(N3CCN(C4CCCCC4)CC3)nc(Sc3ccc4nc(C(F)(F)F)[nH]c4c3)n2)[nH]n1` [Compound I-8], for which the half-inhibitory concentration (IC50) with Colo205 cells (setting [2]) is below 50 nM.
Turning to `Cc1cc(Nc2cc(N3CCN(C4CCCCC4)CC3)nc(Sc3ccc4nc(C(F)(F)F)n(C)c4c3)n2)[nH]n1` [Compound I-3], the IC50 in the experiment on Colo205 cells (setting [2]) and with Colo205 cells (setting [3]) was below 50 nM throughout.
As to `Cc1cc(Nc2cc(N3CCN(C4CC4)CC3)nc(Sc3ccc4nc(CC(F)(F)F)n(C)c4c3)n2)[nH]n1` [Compound I-5], in the experiment on Colo205 cells (setting [2]), the IC50 was below 50 nM.
`Cc1cc(Nc2cc(N3CCN(CC(F)(F)F)CC3)nc(Sc3ccc4nc(C(F)(F)F)[nH]c4c3)n2)[nH]n1` [Compound I-9]: the results for the inhibition constant Ki on Aurora-1 (Aurora B) and at Aurora-2 (Aurora A) were 20 to 50 nM and at most 1 nM, respectively.
Consider `Cc1cc(Nc2cc(N3CCN(C4CC4)CC3)nc(Sc3ccc4c(c3)CN(CC(F)(F)F)C4=O)n2)[nH]n1` [Compound I-20], for which, in the experiment with Colo205 cells (setting [2]), the IC50 is below 50 nM.
Turning to `Cc1cc(Nc2cc(N3CCN(C(C)(C)C)CC3)nc(Sc3ccc4c(cnn4C)c3)n2)[nH]n1` [Compound I-16], in the experiment with Colo205 cells (setting [3]), the IC50 is below 50 nM.
Regarding `Cc1cc(Nc2cc(N3CCN(C4CCCCC4)CC3)nc(Sc3ccc4c(c3)CN(CC(F)(F)F)C4=O)n2)[nH]n1` [Compound I-25], the IC50 with Colo205 cells (setting [2]) was below 50 nM.
As to `Cc1cc(Nc2cc(N3CCN(C4CC4)CC3)nc(Sc3ccc4nc(C(F)(F)F)n(C)c4c3)n2)[nH]n1` [Compound I-10], the IC50 with Colo205 cells (setting [2]) was 50 to 100 nM; in the experiment with Colo205 cells (setting [3]), below 50 nM.
Take `Cc1cc(Nc2cc(N3CCN(C(C)(C)C)CC3)nc(Sc3ccc4ncn(C)c4c3)n2)[nH]n1` [Compound I-18]: the IC50 with Colo205 cells (setting [3]) was below 50 nM.
For `Cc1cc(Nc2cc(N3CCN(C(C)(C)CF)CC3)nc(Sc3ccc4c(c3)CN(CC(F)(F)F)C4=O)n2)[nH]n1` [Compound I-2], the IC50 in the experiment on Colo205 cells (setting [2]) fell in the range of 50 to 100 nM.
On the same count and under the same terms, the value for `Cc1cc(Nc2cc(N3CCN(C4CCCCC4)CC3)nc(Sc3cc(F)c4nc(C)ccc4c3)n2)[nH]n1` [Compound I-1] was 50 to 100 nM.
